One series concerns U-251. In words: Cytotoxicity against human U-251MG cells incubated for 48 hrs by MTT assay. Format: functional, cell-based. To be noted: U-251, 48 h. Background: Formazan colour is commonly taken as a measure of viable cells.
Another series deals with Caco-2. The series is described as follows: Cytotoxicity against human Caco-2 cells incubated for 48 hrs by MTT assay. Format: functional, cell-based. Particulars: Caco-2, 48 h.
A short description of series [1]: Cytotoxicity against human MRC5 cells incubated for 48 hrs by MTT assay. The class given is toxicity, cell-based.
The next series relates to OVCAR-3. The series is described as follows: Cytotoxicity against human OVCAR-3 cells incubated for 48 hrs by MTT assay. Particulars: OVCAR-3, 48 h. Format: functional, cell-based.
For the next series, the system named is A549. In words: Cytotoxicity against human A549 cells incubated for 48 hrs by MTT assay. Format: functional, cell-based. To be noted: A549, 48 h.
The subject of another series is U-118-MG. In words: Cytotoxicity against human U-118 MG cells incubated for 48 hrs by MTT assay. Format: functional, cell-based.
In the next series the test system is U-87 MG. In words: Cytotoxicity against human U-87 MG cells incubated for 48 hrs by MTT assay. The class given is functional, cell-based, U-87MG ATCC.
A further series deals with MDA-MB-231. In words: Cytotoxicity against human MDA-MB-231 cells incubated for 48 hrs by MTT assay. Format: functional, cell-based. Particulars: MDA-MB-231, 48 h.
The test system of a further series is SK-OV-3. In words: Cytotoxicity against human SK-OV-3 cells incubated for 48 hrs by MTT assay. The class given is functional, cell-based. Particulars: SK-OV-3, 48 h.
In another series the test system is HeLa. The series is described as follows: Cytotoxicity against human HeLa cells incubated for 48 hrs by MTT assay. The class given is functional, cell-based.
The subject of the next series is HepG2. In words: Cytotoxicity against human HepG2 cells incubated for 48 hrs by MTT assay. Particulars: HepG2, 48 h. The class given is functional, cell-based.
In series [2] the target is Urokinase-type plasminogen activator (Homo sapiens, UniProt P00749). In words: Inhibition of human urokinase uPA using Z-Gly-Gly-Arg-AMC as substrate by fluorescence plate reader assay.

Regarding `COP(=O)(OC)C(N[C@@H](C)C(C)(C)C)c1ccc(F)cc1F` (stereo partly drawn), the IC50 (commonly the concentration at which inhibition is half-maximal) was 119 µM in the series on U-251; 6.44 µM in the series on Caco-2; 66.3 µM in the series on OVCAR-3; 1.82 µM in the series with A549; 87.7 µM in the series on U-118-MG; 40.7 µM in the series on U-87 MG. Also, the half-maximal inhibitory concentration (IC50) in the series on MDA-MB-231 was 165 µM; with SK-OV-3 it was 131 µM; with HeLa it was 9.85 µM; with HepG2, 59.5 µM. The compound also yielded an IC50 at 48 h in [1] of 82.2 µM.
With `COP(=O)(OC)C(N[C@@H](C)C(C)(C)C)c1ccc(F)cc1` (stereo partly drawn), the IC50 came out at 516 µM in [2]; 21 µM in the series with U-251; 18.5 µM in the series with Caco-2; 81.6 µM with OVCAR-3; 9.82 µM in the series with A549; 38.3 µM in the series on U-118-MG. In addition, the IC50 worked out at 36.3 µM in the series with U-87 MG; 190 µM in the series on MDA-MB-231; 6.77 µM with SK-OV-3; 6.07 µM in the series on HeLa; 6.73 µM with HepG2. The midpoint of inhibition in series [1], the IC50 at 48 h, lay at 110 µM.
With `COc1ccc([C@@H](C)NC(c2c(F)cc(F)cc2F)P(=O)(OC)OC)cc1` (stereo partly drawn), the IC50 came out at 47.8 µM in the series with U-251; 14.6 µM in the series on Caco-2; 78.6 µM in the series with OVCAR-3; 33.2 µM in the series with A549; 70 µM with U-118-MG; 22.6 µM in the series on U-87 MG. Besides, the IC50 in the series with MDA-MB-231 is 27 µM; in the series on SK-OV-3, 4.2 µM; with HeLa, 17.5 µM; in the series on HepG2 it was 13.2 µM. In series [1], this compound yielded an IC50 at 48 h of 5.86 µM.
For `COP(=O)(OC)C(N[C@@H](C)C(C)(C)C)c1ccccc1F` (stereo partly drawn), the half-inhibitory concentration (IC50) in the series on U-251 came out at 8.95 µM; with Caco-2, 1.3 µM; with OVCAR-3 it was 51.7 µM; with A549, 55.1 µM; with U-118-MG, 81.2 µM; in the series with U-87 MG, 3.27 µM. Moreover, the IC50 with MDA-MB-231 turned out to be 160 µM; in the series on SK-OV-3 it was 21.9 µM; in the series with HeLa, 21.4 µM; in the series on HepG2, 59.6 µM. The compound further displayed an IC50 at 48 h in series [1] of 34.4 µM.
As for `CCOP(=O)(OCC)C(N[C@H](C)c1ccc(OC)cc1)c1c(F)c(F)c(F)c(F)c1F` (stereo partly drawn), the half-maximal inhibitory concentration (IC50) is 416 µM in series [2]; 78.9 µM in the series with U-251; 1.74 µM with Caco-2; over 500 µM in the series on OVCAR-3; 44.6 µM with A549; 14.4 µM in the series with U-118-MG. The half-maximal inhibitory concentration (IC50) in the series on U-87 MG was found to be 9.34 µM; in the series with MDA-MB-231, 19.1 µM; with SK-OV-3, 5.37 µM; in the series on HeLa, 3.92 µM; in the series on HepG2, 45.3 µM. For the same compound, the IC50 at 48 h in [1] was determined as 27.2 µM.
`COP(=O)(OC)C(N[C@H](C)c1ccccc1)c1c(F)c(F)c(F)c(F)c1F` (stereo partly drawn): the IC50 in the series on U-251 amounted to 34.1 µM; with Caco-2, 6.02 µM; in the series on OVCAR-3, 13 µM; in the series on A549, 49.6 µM; with U-118-MG it was 51.2 µM; with U-87 MG it was 5.45 µM. The half-inhibitory concentration (IC50) in the series with MDA-MB-231 came out at 94.3 µM; in the series with SK-OV-3, 28.2 µM; in the series with HeLa, 4.09 µM; with HepG2 it was 55.1 µM. Besides, it took 84.1 µM to reach half-maximal inhibition in series [1] (IC50 at 48 h).
Take `CCOP(=O)(OCC)C(N[C@@H](C)C(C)(C)C)c1ccc(F)cc1F` (stereo partly drawn): the IC50 in the series with U-251 was determined as 48.6 µM; in the series with Caco-2 it was 27.4 µM; in the series with OVCAR-3, 48.3 µM; in the series with A549, 18 µM; in the series with U-118-MG, 35.5 µM; in the series on U-87 MG, 10.5 µM. Moreover, the IC50 worked out at 5.58 µM with MDA-MB-231, 110 µM in the series on SK-OV-3, 4.46 µM with HeLa and 18.4 µM with HepG2. Besides, the half-inhibitory concentration (IC50) at 48 h in [1] turned out to be 107 µM.
Consider `CC(C)OP(=O)(OC(C)C)C(N[C@@H](C)C(C)(C)C)c1ccc(F)cc1F` (stereo partly drawn), for which the IC50 in the series with U-251 was 3.97 µM; with Caco-2, 10.5 µM; in the series on OVCAR-3, 194 µM; with A549, 72 µM; in the series on U-118-MG, 150 µM; in the series with U-87 MG, 7.78 µM. The IC50 in the series on MDA-MB-231 was 9.89 µM; in the series with SK-OV-3 it was 8.63 µM; with HeLa, 5.37 µM; in the series on HepG2, 23.6 µM. Also, the IC50 at 48 h in series [1] came out at 47.8 µM.
Regarding `COc1ccc([C@@H](C)NC(c2ccc(F)cc2F)P(=O)(OC(C)C)OC(C)C)cc1` (stereo partly drawn), the 50% inhibitory concentration (IC50) in series [2] turned out to be 620 µM; in the series with U-251 it was 3.51 µM; with Caco-2, 0.72 µM; with OVCAR-3, 3.57 µM; in the series with A549, 2.87 µM; in the series on U-118-MG it was 67.6 µM. For the same compound, the IC50 in the series on U-87 MG came out at 3.72 µM; in the series with MDA-MB-231, 80.9 µM; in the series on SK-OV-3, 9.35 µM; in the series on HeLa, 5.07 µM; with HepG2, 46.2 µM. For the same compound, the IC50 at 48 h in series [1] worked out at 1.82 µM.
For the compound `COP(=O)(OC)C(NC(C)C(C)(C)C)c1ccc(F)cc1` (racemic), the IC50 in the series with U-251 turned out to be 16.5 µM; in the series with Caco-2, 16.1 µM; in the series with OVCAR-3, 104 µM; in the series with A549, 7.95 µM; in the series with U-118-MG, 45.8 µM; in the series on U-87 MG, 39.8 µM. Moreover, the IC50 was found to be 230 µM with MDA-MB-231, 8.75 µM in the series on SK-OV-3, 6.28 µM in the series with HeLa and 5.57 µM in the series with HepG2. Also, the IC50 at 48 h in series [1] was 90.7 µM.

The values are drawn from ChEMBL document CHEMBL6074679, “Diastereoselective synthesis and biological evaluation of new fluorine-containing α-aminophosphonates as anticancer agents and scaffold to human urokinase plasminogen activator inhibitors” (Eur J Med Chem, 2025).
